Assay results taken from patent US20060111289A1, “Compositions and methods of using Alpha-fetoprotein growth inhibitory peptides” (Serometrix, LLC,, priority 2004, published 2006).
“Also recorded” adds a separate entry of the source. Where two headings read alike, the source gives them in different places. Where a SMILES comes first, the peptide text is derived from it.

Key:
[1] = system: 6WI-1 mammary tumor cells; assay: 6WI-1 mammary tumor in 15-day old mouse pups (6 day assay); type: in vivo; conditions: mouse, in vivo
Excerpt: As an alternative model of the 6WI-I mammary tumor in adult mice, an inocula of 1×10^6 tumor cells injected into 15-day old mouse pups provided a 6 day rather than a 12 day assay and replicated the same tumor growth suppression by GIP.

MCF-7 and GI-101 cells = assay: ATP luminescence cytostatic assay (6 days); type: cell-based, human; conditions: peptide 10^−12 to 10^−8 M
Excerpt: FIG. 2 presents exemplary data for both in vivo and in vitro growth suppressive activities of the GIP-derived P149 and control peptides are depicted in GI-101 human ductal breast carcinoma and in MCF-7 human glandular breast carcinoma. • Panels A and A2: GI-101 and MCF-7 xenograft in nude mice administered P149 time-release pellets for 60 days and 30 days, respectively (N=5 mice/group). • Panels B and B2: GI-101 and MCF-7 in cell cultures treated with P149 and P187 at concentrations from 10-8 to 10-12 M for 6 days and assayed by ATP luminescence reagent employing a luciferin-luciferase system. The ATP assay, used to distinguish between cytostasis versus cytotoxicity, was used to confirm that P149 was cytostatic in its cell inhibitory activity at 6 days (see text for details).
In order to confirm whether P149 was indeed cytostatic, and not cytotoxic, an ATP-based cytostatic assay was performed which measures the decrease in cytosolic ATP during drug (i.e., for example, GIP peptide) treatment. This ATP luminescence assay has long been employed to distinguish between cytostatic versus cytotoxic chemotherapeutic sensitivity of drugs. […] After incubation of the cell cultures for 6 days, cytosolic ATP was extracted, stabilized, and quantitated from a standard curve produced from Berthold LB-96P luminometer readings using a luciferin-luciferase counting reagent.

MCF-7 = MCF-7 (breast, AC); 2-Day Assay; Conc. 10^−2 Molar
MDA-MB-231 = MDA-MB-231 (breast, AC); 6-Day Assay; Conc. 10^−7 only Molar
HCC-299 = HCC-299 (colon, AC); 2-Day Assay; Conc. 10^−1 Molar
UACC-257 = UACC-257 (melanoma, squamous); 2-Day Assay; Conc. 10^−2 Molar
Molt-4 = Molt-4 (white blood cell, leukemia); 2-Day Assay; Conc. 10^−2 Molar
OVCAR-3 = OVCAR-3 (ovary, AC); 2-Day Assay; Conc. 10^−2 Molar
RXF-393 = RXF-393 (kidney, renal CA); 2-Day Assay; Conc. 10^−1 Molar
MDA-MB-435 = MDA-MB-435 (breast, AC); 2-Day Assay; Conc. 10^−1 Molar
[2] = system: human kidney tumor cell line
SK-MeL-5 = SK-MeL-5 (melanoma, squamous)
CCRF-CEM = CCRF-CEM (white blood cell, leukemia)
T-47D = T-47D (breast, AC)
DU-145 = DU-145 (prostate, AC); 2-Day Assay; Conc. 10^−1 Molar
Colo-205 = Colo-205 (colon, AC)
K-562 = K-562 (white blood cell, leukemia); 6-Day Assay; Conc. 10^−7 Molar
NCI-H460 = NCI-H460 (non-small cell lung, CA); 2-Day Assay; Conc. 10^−2 Molar
IGROV1 = IGROV1 (ovary, AC); 2-Day Assay; Conc. 10^−1 Molar
60 cancer cell lines = assay: NCI screen of 60 cancer cell lines, 2 day versus 6-day sulforhodamine assay; type: cell-based, human; conditions: nine different cancer cell types
Excerpt: These findings detailed the in vitro results of the GIP challenges against 60 different cell culture lines representing a variety of human cancers.

PC-3 = PC-3 (prostate, AC); 2-Day Assay; Conc. 10^−1 Molar
SF-539 = SF-539 (central nervous system, CA)
ACHN = ACHN (kidney, renal CA); 2-Day Assay; Conc. 10^−2 Molar
NCI-H226 = NCI-H226 (non-small cell lung, CA)
U-251 = U-251 (central nervous system, CA); 2-Day Assay; Conc. 10^−2 Molar

## LSENKLLACGEGAANIIIGHLCIRHEMTPVNPGV (listed as Homo sapiens) [P187]
[1]
  Growth inhibitory potency in the mouse pup model compared with P149: slightly less growth inhibitory potency
MCF-7 and GI-101 cells
  Growth inhibition / decrease in cytosolic ATP in the ATP luminescence assay: significantly different; also recorded: equally responsive as P149 at 10^−8 M

## CC[C@H](C)[C@H](NC(=O)[C@H](CS)NC(=O)[C@H](CC(C)C)NC(=O)[C@H](Cc1c[nH]cn1)NC(=O)CNC(=O)[C@@H](NC(=O)[C@@H](NC(=O)[C@@H](NC(=O)[C@H](CC(=O)O)NC(=O)[C@H](C)NC(=O)[C@H](C)NC(=O)CNC(=O)[C@H](CCC(=O)O)NC(=O)CNC(=O)[C@H](CS)NC(=O)[C@H](C)NC(=O)[C@H](CC(C)C)NC(=O)[C@H](CC(C)C)NC(=O)[C@H](CCCCN)NC(=O)[C@H](CC(=O)O)NC(=O)[C@H](CCC(=O)O)NC(=O)[C@H](CO)NC(=O)[C@@H](N)CC(C)C)[C@@H](C)CC)[C@@H](C)CC)[C@@H](C)CC)C(=O)N[C@@H](CCCNC(=N)N)C(=O)N[C@@H](Cc1c[nH]cn1)C(=O)N[C@@H](CCC(=O)O)C(=O)N[C@@H](CCSC)C(=O)N[C@H](C(=O)N1CCC[C@H]1C(=O)N[C@H](C(=O)N[C@@H](CC(N)=O)C(=O)N1CCC[C@H]1C(=O)NCC(=O)N[C@H](C(=O)O)C(C)C)C(C)C)[C@@H](C)O [P149] (H-LSEDKLLACGEGAADIIIGHLCIRHEMTPVNPGV-OH)
MCF-7
  % Growth Inhibition: 20%
MDA-MB-231
  % Growth Inhibition: 80%
HCC-299
  % Growth Inhibition: 20%
UACC-257
  % Growth Inhibition: 20%
Molt-4
  % Growth Inhibition: 5%
OVCAR-3
  % Growth Inhibition: 20%
RXF-393
  % Growth Inhibition: 30%
MDA-MB-435
  % Growth Inhibition: 20%
[2]
  % Inhibition Of Activity: Kidney tumor growth: 70%
SK-MeL-5; 2-Day Assay, Conc. 10^−2 Molar
  % Growth Inhibition: 5%
SK-MeL-5; 6-Day Assay, Conc. 10^−5 Molar
  % Growth Inhibition: 10%
CCRF-CEM; 2-Day Assay, Conc. 10^−2 Molar
  % Growth Inhibition: 5%
CCRF-CEM; 6-Day Assay, Conc. 10^−5 Molar
  % Growth Inhibition: 5-10%
T-47D; 2-Day Assay, Conc. 10^−2 Molar
  % Growth Inhibition: 10%
T-47D; 6-Day Assay, Conc. 10^−5 Molar
  % Growth Inhibition: 25%
DU-145
  % Growth Inhibition: 10%
Colo-205; 2-Day Assay, Conc. 10^−2 Molar
  % Growth Inhibition: 10%
Colo-205; 6-Day Assay, Conc. 10^−5 Molar
  % Growth Inhibition: 10%
K-562
  % Growth Inhibition: 45%
NCI-H460
  % Growth Inhibition: 30%
IGROV1
  % Growth Inhibition: 10%
60 cancer cell lines
  Number of the 60 cancer cell lines against which the peptide appeared cytostatic (not cytotoxic): 38
PC-3
  % Growth Inhibition: 5%
SF-539; 2-Day Assay, Conc. 10^−2 Molar
  % Growth Inhibition: 10%
SF-539; 6-Day Assay, Conc. 10^−5 Molar
  % Growth Inhibition: 15-20%
ACHN
  % Growth Inhibition: 20%
NCI-H226; 2-Day Assay, Conc. 10^−2 Molar
  % Growth Inhibition: 5%
NCI-H226; 6-Day Assay, Conc. 10^−5 Molar
  % Growth Inhibition: 5-10%
U-251
  % Growth Inhibition: 15%
